Biological target: T1, human ferroportin (Homo sapiens, UniProt Q9NP59)
T1 construct: luciferase reporter (read with the Nano-Glo Luciferase Assay System); expressed in transfected cells; host or cells: CHO cells, stably transfected, expression induced with doxycycline
T1 sequence (Q9NP59 1-571): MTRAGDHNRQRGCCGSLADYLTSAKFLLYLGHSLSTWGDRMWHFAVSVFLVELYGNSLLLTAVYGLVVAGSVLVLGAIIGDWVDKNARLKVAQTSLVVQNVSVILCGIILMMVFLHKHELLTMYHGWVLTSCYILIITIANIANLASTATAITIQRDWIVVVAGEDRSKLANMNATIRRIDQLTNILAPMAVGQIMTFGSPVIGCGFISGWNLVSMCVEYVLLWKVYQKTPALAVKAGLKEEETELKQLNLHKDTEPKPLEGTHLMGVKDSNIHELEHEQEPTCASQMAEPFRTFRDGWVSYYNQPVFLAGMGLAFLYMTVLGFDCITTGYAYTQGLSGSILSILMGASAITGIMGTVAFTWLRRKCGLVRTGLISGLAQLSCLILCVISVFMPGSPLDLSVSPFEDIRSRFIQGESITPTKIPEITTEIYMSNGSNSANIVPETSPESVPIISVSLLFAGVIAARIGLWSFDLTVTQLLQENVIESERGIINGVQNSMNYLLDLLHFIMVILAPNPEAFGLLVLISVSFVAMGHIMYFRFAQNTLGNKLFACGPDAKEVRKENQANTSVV
Assay: Biological in-vitro ferroportin internalization assay (luciferase reporter)
Assay type: cell-based
Settings: average pEC50; stably-transfected CHO cell line expressing human ferroportin tagged to a luciferase reporter; 6 h incubation with test compound
In short: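 Read-out is Nano-Glo luciferase signal after 6 h compound exposure, with average pEC50 derived. Cells are a stable CHO line carrying luciferase-tagged human ferroportin, pre-loaded 24 h with ferric ammonium citrate and doxycycline-induced for 24 h.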

Row | SMILES | pEC50
1 | CN(CC(=O)NCc1ccccn1)c1nc(-c2ccccn2)nc2c1CCC2 [Compound 38, 2-{methyl[2-(pyridin-2-yl)-5H,6H,7H-cyclopenta[d]pyrimidin-4-yl]amino}-N-[(pyridin-2-yl)methyl]acetamide] | 6.6
2 | CN(Cc1ncccn1)c1nc(-c2ccccn2)nc2c1CCC2 [Compound 81, N-methyl-2-(pyridin-2-yl)-N-[(pyrimidin-2-yl)methyl]-5H,6H,7H-cyclopenta[d]pyrimidin-4-amine] | 6.8
3 | CC(C)NC(=O)CN(C)c1nc(-c2cc(OCCN(C)C)ccn2)nc2c1CC(C)(C)C2 [Compound 455, 2-[(2-{4-[2-(dimethylamino)ethoxy]pyridin-2-yl}-6,6-dimethyl-5H,6H,7H-cyclopenta[d]pyrimidin-4-yl)(methyl)amino]-N-(propan-2-yl)acetamide] | 7.7
4 | COc1ccc(N2CCCN(c3nc(-c4ccccn4)nc4c3CCC4)CC2=O)cc1 [Compound 188, 1-(4-methoxyphenyl)-4-[2-(pyridin-2-yl)-5H,6H,7H-cyclopenta[d]pyrimidin-4-yl]-1,4-diazepan-2-one] | 6.7
5 | CN(c1nc(-c2cc(OCCO)ccn2)nc2c1CCC2)[C@@H]1CCCN(c2cccc(F)c2)C1=O [Compound 321, (3R)-1-(3-fluorophenyl)-3-({2-[4-(2-hydroxyethoxy)pyridin-2-yl]-5H,6H,7H-cyclopenta[d]pyrimidin-4-yl}(methyl)amino)piperidin-2-one] | 7.1
6 | CN(CC(=O)Nc1ccc(F)cc1)c1nc(-c2cc3cn(C)nc3cn2)nc2c1CCC2 [Compound 314, N-(4-fluorophenyl)-2-[methyl(2-{2-methyl-2H-pyrazolo[3,4-c]pyridin-5-yl}-5H,6H,7H-cyclopenta[d]pyrimidin-4-yl)amino]acetamide] | 7.6
7 | Cc1ccc(NC(=O)CN(C)c2nc(-c3cc4cc(CO)ccc4cn3)nc3c2CCC3)cn1 [Compound 297, 2-({2-[6-(hydroxymethyl)isoquinolin-3-yl]-5H,6H,7H-cyclopenta[d]pyrimidin-4-yl}(methyl)amino)-N-(6-methylpyridin-3-yl)acetamide] | 7.5
8 | CCOc1ccnc(-c2nc3c(c(N(C)CC(=O)Nc4cnc(OC)nc4)n2)CCC3)c1 [Compound 259, 2-{[2-(4-ethoxypyridin-2-yl)-5H,6H,7H-cyclopenta[d]pyrimidin-4-yl](methyl)amino}-N-(2-methoxypyrimidin-5-yl)acetamide] | 7.1
9 | CN(CC(=O)Nc1cccc(F)c1)c1nc(-c2cn(C)cn2)nc2c1CCC2 [Compound 271, N-(3-fluorophenyl)-2-{methyl[2-(1-methyl-1H-imidazol-4-yl)-5H,6H,7H-cyclopenta[d]pyrimidin-4-yl]amino}acetamide] | 7.4
10 | COc1ccnc(-c2nc3c(c(N(C)[C@H](C)C(=O)NC(C)(C)C)n2)CCC3)c1 [Compound 101, (2R)—N-tert-butyl-2-{[2-(4-methoxypyridin-2-yl)-5H,6H,7H-cyclopenta[d]pyrimidin-4-yl](methyl)amino}propanamide] | 8.2
11 | COc1ccc(NC(=O)CN(C)c2nc(-c3cc(O[C@@H]4CCOC4)ccn3)nc3c2CCC3)cn1 [Compound 346, N-(6-methoxypyridin-3-yl)-2-[methyl(2-{4-[(3R)-oxolan-3-yloxy]pyridin-2-yl}-5H,6H,7H-cyclopenta[d]pyrimidin-4-yl)amino]acetamide] | 7.6
12 | COc1ccc(NC(=O)CN(C)c2nc(-c3cc4cn[nH]c4cn3)nc3c2CCC3)cn1 [Compound 219, N-(6-methoxypyridin-3-yl)-2-[methyl(2-{1H-pyrazolo[3,4-c]pyridin-5-yl}-5H,6H,7H-cyclopenta[d]pyrimidin-4-yl)amino]acetamide] | 7.1
13 | COc1ncc(NC(=O)CN(C)c2nc(-c3cn(C)cn3)nc3c2CCC3)cn1 [Compound 186, N-(2-methoxypyrimidin-5-yl)-2-{methyl[2-(1-methyl-1H-imidazol-4-yl)-5H,6H,7H-cyclopenta[d]pyrimidin-4-yl]amino}acetamide] | 7

Results, then the compound that gave them:

Row | pEC50 | SMILES
14 | 7.7 | CN(CC(=O)N1CCC(F)(F)CC1)c1nc(-c2cc(OCCO)ccn2)nc2c1CCC2 [Compound 355, 1-(4,4-difluoropiperidin-1-yl)-2-({2-[4-(2-hydroxyethoxy)pyridin-2-yl]-5H,6H,7H-cyclopenta[d]pyrimidin-4-yl}(methyl)amino)ethan-1-one]
15 | 7.9 | CC(C)NC(=O)CN(C)c1nc(-c2cc(OCC3(O)CCOCC3)ccn2)nc2c1CCC2 [Compound 444, 2-[(2-{4-[(4-hydroxyoxan-4-yl)methoxy]pyridin-2-yl}-5H,6H,7H-cyclopenta[d]pyrimidin-4-yl)(methyl)amino]-N-(propan-2-yl)acetamide]
16 | 6.5 | CN(CC(=O)NC(C)(C)C)c1nc(-c2ncccc2O)nc2c1CCC2 [Compound 181, N-tert-butyl-2-{[2-(3-hydroxypyridin-2-yl)-5H,6H,7H-cyclopenta[d]pyrimidin-4-yl](methyl)amino}acetamide]
17 | 7.7 | Cc1ccnc(-c2nc3c(c(N(C)CC(=O)NC4(C)CCCC4)n2)CCC3)c1 [Compound 105, 2-{methyl[2-(4-methylpyridin-2-yl)-5H,6H,7H-cyclopenta[d]pyrimidin-4-yl]amino}-N-(1-methylcyclopentyl)acetamide]
18 | 7.9 | Cc1ccc(NC(=O)CN(C)c2nc(-c3cc(OC4COC4)ccn3)nc3c2CCC3)cc1 [Compound 326, 2-[methyl({2-[4-(oxetan-3-yloxy)pyridin-2-yl]-5H,6H,7H-cyclopenta[d]pyrimidin-4-yl})amino]-N-(4-methylphenyl)acetamide]
19 | 7.1 | CN(CC(=O)N1CCCCC1)c1nc(-c2ccccn2)nc2c1CCC2 [Compound 88, 2-{methyl[2-(pyridin-2-yl)-5H,6H,7H-cyclopenta[d]pyrimidin-4-yl]amino}-1-(piperidin-1-yl)ethan-1-one]
20 | 8.2 | CN(CC(=O)NC(C)(C)C)c1nc(-c2cc(OCC3(O)CCC3)ccn2)nc2c1CCC2 [Compound 388, N-tert-butyl-2-[(2-{4-[(1-hydroxycyclobutyl)methoxy]pyridin-2-yl}-5H,6H,7H-cyclopenta[d]pyrimidin-4-yl)(methyl)amino]acetamide]
21 | 7.9 | CN(CC(=O)NC(C)(C)C)c1nc(-c2cc(O[C@@H]3CCOC3)ccn2)nc2c1CCC2 [Compound 318, N-tert-butyl-2-[methyl(2-{4-[(3R)-oxolan-3-yloxy]pyridin-2-yl}-5H,6H,7H-cyclopenta[d]pyrimidin-4-yl)amino]acetamide]
22 | 7.7 | Cc1cc(NC(=O)CN(C)c2nc(-c3cc(OCCO)ccn3)nc3c2CCC3)sn1 [Compound 350, 2-({2-[4-(2-hydroxyethoxy)pyridin-2-yl]-5H,6H,7H-cyclopenta[d]pyrimidin-4-yl}(methyl)amino)-N-(3-methyl-1,2-thiaozl-5-yl)acetamide]
23 | 7.3 | CN(C)CCOc1ccnc(-c2nc3c(c(N(C)CC(=O)Nc4cnn(C5CC5)c4)n2)CCC3)c1 [Compound 410, N-(1-cyclopropyl-1H-pyrazol-4-yl)-2-[(2-{4-[2-(dimethylamino)ethoxy]pyridin-2-yl}-5H,6H,7H-cyclopenta[d]pyrimidin-4-yl)(methyl)amino]acetamide]
